According to paper PMC3638593, “1,4-dihydroxy-2-naphthoic Acid Induces Apoptosis in Human Keratinocyte: Potential Application for Psoriasis Treatment” (Evidence-based Complementary and Alternative Medicine : eCAM, 2013):
Where “and” joins values, the source holds several entries; their conditions need not be identical. Equal values may be shown once. Read-outs that look alike come from different tables or passages of the source.

How the values were obtained:
Type in all cases: cell-based, human
HaCaT cells [1] = experiment: Proliferation assay (sulphorhodamine B) on HaCaT; settings: for IC50: Homo sapiens, read-out: IC50 on growth
From the text: The spontaneously immortalized human epidermal keratinocyte HaCaT cells were purchased from China Centre for Type Culture Collection, Wuhan, China. The human foreskin fibroblast Hs-68 cells were purchased from the American Type Culture Collection (Manassas, VA, USA). The human undifferentiated keratinocyte NCTC 2544 cells were provided by Interlab Cell Line Collection (Genoa, Italy) and the immortalized human epidermal melanocyte PIG1 cells were a gift from Dr Caroline Le Poole (Loyola University Chicago, Maywood, IL, USA). HaCaT and Hs-68 cells were maintained in DMEM, NCTC 2544 in RPMI 1640 and PIG1 cells in Medium 254 with Human Melanocyte Growth Supplement-2, respectively. All cells were cultured in complete medium containing 10% FBS, 100 μg/mL of streptomycin, and 100 U/mL of penicillin (Gibco Laboratories) at 37°C in a humidified atmosphere of 5% CO2. Cell culture experiments were carried out at 60–80% confluent.
The ethyl acetate extract (EA) of Rubia cordifolia L. was isolated as described. 1,4-dihydroxy-2-naphthoic acid (98%), dithranol (≥90%), and EA were dissolved in DMSO as stock. All cells were seeded and treated with various concentrations of DHNA, dithranol or EA. After treatment, cells were fixed with cold 50% trichloroacetic acid and incubated 1 h at 4°C. Cell was then washed with deionized water, air-dried, and stained with 0.4% (w/v) sulphorhodamine B for 30 min at room temperature. Unincorporated dye was removed with 1% acetic acid wash and the cell was again air-dried. Incorporated dye was then solubilized in 10 mM Tris base and absorbance was measured at 565/690 nm using a Sunrise microplate spectrophotometer (Tecan, Switzerland). IC50 were determined using GraphPad Prism 5.0 (GraphPad Software, San Diego, CA, USA).

[2] = test system: IL-1α release from NCTC 2544 cells; experiment: IL-1α release assay (ELISA)
Experimental: NCTC 2544 cells were seeded and treated with various concentrations of DHNA or dithranol for 72 h. After incubation, the microplate was centrifuged and conditioned medium was collected to determine the extracellular IL-1α (IL-1α release) using an IL-1α ELISA kit (Diaclone Research, France). All other steps were then according to the manufacturer's protocol. Results were expressed in pg/mL.

HaCaT cells [3] = experiment: JC-1 staining, mitochondrial membrane potential
Experimental: After DHNA treatment, HaCaT cells were harvested and washed with PBS. Cells were then incubated in 1.5 μM JC-1 (5,5′,6,6′-tetrachloro-1,1′,3,3′-tetraethylbenzimidazolylcarbocyanine iodide, Molecular Probes) in PBS at 37°C for 15 min in the dark. Thereafter cells were washed, resuspended in PBS and then immediately analyzed on the FACSCanto flow cytometer. If mitochondrial membrane potential (MMP) depolarizes, JC-1 becomes a monomer and emits green fluorescence; when MMP polarizes, JC-1 becomes a polymer and emits red fluorescence. It indicates mitochondria depolarization by a decrease in red/green fluorescence intensity ratio.

[4] = test system: cell cycle related proteins in HaCaT cells; experiment: Western blot of cell cycle related proteins; settings: 12 h
Experimental: (§1) After DHNA treatment HaCaT cells were collected and lysed in CelLytic M Mammalian Cell Lysis/Extraction Reagent with freshly added Protease Inhibitor Cocktail for 30 min at 4°C. Cell lysate was centrifuged at 15000 g for 15 min at 4°C and supernatant was collected as whole cell lysate. Protein concentration was determined by Bio-Rad protein assay dye reagent concentrate (Bio-Rad Laboratories, Hercules, CA, USA) following the manufacturer's instructions. Whole cell lysate was denatured by boiling for 5 min in 6X SDS loading buffer (0.375 M Tris [pH 6.8], 30% glycerol, 12% SDS, 0.2% bromophenol blue and 12% β-mercaptoethanol). Equal amount of protein (10–20 μg) was then separated by 12–15% SDS-PAGE and later proteins were transferred to polyvinylidene difluoride membrane (Millipore, Billerica, MA, USA) using Trans-Blot SD semidry transfer cell (Bio-Rad Laboratories). After that, membranes were blocked with 2–5% (w/v) bovine serum albumin or nonfat dry milk in Tris-buffered Saline-Tween (TBS-T; 0.05% v/v Tween-20, 10 mM Tris [pH 7.4], 150 mM NaCl) for 1 h and subsequently incubated overnight at 4°C with different primary antibodies in TBS-T. Membrane was then washed using TBS-T and followed by incubation with corresponding horseradish peroxidase labeled second antibodies (Santa Cruz Biotechnology) in TBS-T for 1 h. After washing of membrane with TBS-T, protein bands were visualized using Immobilon Western Chemiluminescent HRP Substrate (Millipore) and autoradiography with Lumi-Film Chemiluminescent Detection Film (Roche Applied Science). Equal protein loading was monitored by β-actin antibody on the same membrane.

[5] = test system: apoptosis related proteins in HaCaT cells; experiment: Western blot of apoptosis related proteins
Experimental: as §1

HaCaT cells [6] = experiment: TUNEL assay, flow cytometry; settings: 24 h
Experimental: After DHNA treatment, HaCaT cells were collected and washed and subsequent steps were following the protocol of In Situ Cell Death Detection kit, Fluorescein (Roche Applied Science). Fluorescein-labeled DNA strand breaks were detected by flow cytometry. The percentage of hypodiploid (fragmented) nuclei reflecting relative proportion of apoptotic cells was analyzed by WinMDI 2.9.

For `O=C(O)c1cc(O)c2ccccc2c1O` [DHNA, 1,4-dihydroxy-2-naphthoic acid], the IC50 (HaCaT cells [1]; incubation 48 h) was 111 µM and 22.8 µg/mL, the IC50 (HaCaT cells [1]; incubation 72 h) was 38.9 µM and 7.95 µg/mL and the “less potent than dithranol in inhibiting keratinocytes growth” value (HaCaT cells [1]; compared with dithranol) was ~ 4 times. The “IL-1α release at IC50 on NCTC 2544 keratinocytes” value ([2]; 46.80 μM or 9.56 μg/mL, 72 h) was “no significant IL-1α was released”, the “higher concentration needed for IL-1α release than dithranol” value ([2]; NCTC 2544, 72 h, DHNA versus dithranol) was ~ 30 times and the “concentration at which IL-1α release is significantly induced” value ([2]; NCTC 2544, 72 h, versus vehicle control) was 60 μM and 12.25 μg/mL. The “MMP (red/green JC-1 fluorescence ratio) compared with vehicle control” value (shortened to “MMP (red/green JC-1 fluorescence ratio)”) (HaCaT cells [3]; 30 μM/6.13 μg/mL, 24 h) was 103.3%, the “MMP (red/green JC-1 fluorescence ratio)” value (HaCaT cells [3]; 30 μM/6.13 μg/mL, 48 h) was 95.5% and the “MMP (red/green JC-1 fluorescence ratio)” value (HaCaT cells [3]; 240 μM/49.01 μg/mL, 24 h) was 35.4%. The “MMP (red/green JC-1 fluorescence ratio)” value (HaCaT cells [3]; 240 μM/49.01 μg/mL, 48 h) was 29.2%, the “active form of Cdk2 (Thr160 phosphorylated, 33 kDa)” value ([4]; 240 μM (49.01 μg/mL)) was “no visible change” and the “inactive form of Cdk2 (Thr14 and Tyr15 phosphorylated, 34 kDa)” value ([4]; 240 μM (49.01 μg/mL)) was “increased”. For the same molecule, the “level of Cyclin A/D1/D3 and Cdk4” value ([4]; 240 μM (49.01 μg/mL)) was “decreasing”, the “expression level of p27 and Cdk6” value [4] was “remains unchanged” and the “expression of cyclin dependent kinase inhibitor p21” value [4] was “dose-dependent increase”. For the same molecule, the Bid cleavage ([5]; 240 μM (49.01 μg/mL), 12 h) was “not cleaved”, the “Fas receptor and active form of caspase-3/7/8” value ([5]; 240 μM (49.01 μg/mL), 12 h) was “upregulated” and the PARP cleavage ([5]; 240 μM (49.01 μg/mL), 12 h) was “induced PARP cleavage”. For the same molecule, the “active form of caspase-9” value ([5]; 240 μM (49.01 μg/mL), 12 h) was “no active form of caspase-9 was found”, the procaspase-8 level ([5]; 240 μM (49.01 μg/mL), 12 h) was “decreased” and the “expression levels of Bcl-2, Bcl-xL, Bid, and FADD” value ([5]; 12 h) was “no significant changes”. The “activated caspase-9 and cleaved Bid” value ([5]; 24 h) was “could then be detected”, the TUNEL positive cells (HaCaT cells [6]; 30 μM/6.13 μg/mL) was 15.8% and the TUNEL positive cells (HaCaT cells [6]; 240 μM/49.01 μg/mL) was 92.7%.
